The subject of data set [1] is endogenous reduced glutathione (GSH). The data set is described as follows: In vivo antioxidation: striatum/serum endogenous GSH after IP injection. On the set-up: species or system Balb/c mice. Conditions: mice, injected IP, 100-300 mg/kg, three hours post injection. As for the experimental part:
With reference now to FIG. 3. To this end, three groups of two months old Balb/c mice containing two animals in each group were injected intraperitonealy (IP) with 100-300 mg/kg body weight of compound A. Blood samples were drawn from the tail three hours post injection and then the animals were sacrificed and either the corpus striatum or the whole brain were removed and analyzed for GSH levels.
GSH levels were determined using the experimental procedures as described hereinbelow and/or the GSH-400 kit (Oxis International, Inc.).
Preparation of brain homogenates: Animals were rapidly killed and exsanguinated to remove excess blood from the brain. The brain of each animal was rinsed in a beaker containing water, lightly blotted to dry and were weighted. The striatums were transferred into a hand-homogenizer tube and each was homogenized using a constant number (e.g., 20) of up and down strokes of the hand-homogenizer pestle. Each of the homogenates was poured into a centrifuge tube and centrifuged for 10,000×g for 5 min. The supernatant was used for GSH determination as follows.
GSH Assay: For each measurement, 200 μl of sample were incubated with 20 μl DTNB [5,5′ dithio bis(2-nitrobenzoic acid)] for 1 hour in 37° C. Final absorbance was measured at 400 nm. Similar results were obtained using the GSH-400 kit. […]

The test system of data set [2] is PC12 cells. The data set is described as follows: In vitro extracellular antioxidation: [3H]-thymidine uptake by PC12 cells under dopamine oxidative stress. Type of data set: cell-based. The conditions noted are these: 0.5 mM dopamine 24 hours. As for the experimental part: Compounds A-D were assayed in vitro for their extracellular antioxidant activities. The assays were carried out with PC12 cells (Offen et al., 1996) subjected to a high dose of dopamine which confers oxidative stress to these cells by forming oxidation products during its oxidation in the growth medium, i.e., extracellularly.
With reference now to FIG. 1. To this end, PC12 cells were subjected to high concentration of dopamine (0.5 mM) for 24 hours in the presence of increasing concentrations (0 mM, 0.03 mM, 0.1 mM, 0.3 mM and 0.9 mM) of the various compounds A-D. [^3H]-thymidine was added to the cells (1 μCi/100,000 cells) six hours before the end of the 24 hours period. Due to the high lipophylicity of compounds A-D, the compounds were first dissolved in dimethyl sulfoxide (DMSO) and then in water and were applied to the cells in a final concentration of 3% DMSO. The effect of 3% DMSO on the cells was tested separately and the values presented in FIG. 1 are after the appropriate corrections.
[^3H]-thymidine uptake was measured in triplicate wells containing cells pretreated with dopamine alone and dopamine with each of compounds A-D at the concentrations as indicated above. The results presented in FIG. 1 show the mean of triplicate wells taken from three independent cell batches, wherein control represent cells treated only with 3% DMSO and is defined as 100% [^3H]-thymidine uptake (not shown).

The test system of data set [3] is PC12 cells. The data set is described as follows: In vitro intracellular antioxidation: [3H]-thymidine uptake by PC12 cells under 6-hydroxy-dopamine oxidative stress. Type of data set: cell-based. Conditions: 0.5 mM 6-hydroxy-dopamine 24 hour. As for the experimental part: One of the main characteristics of the oxidative effects in PC12 cells are mimicked by 6-hydroxy-dopamine which is a false neurotransmitter taken up by the cells. Therefore, 6-hydroxy-dopamine was used as another oxidative agent and tested the protective antioxidant efficiencies of compounds A-D within the cells.
With reference now to FIG. 2. To this end, PC12 cells were subjected to high concentration (0.5 mM) of 6-hydroxy-dopamine (6-HO-DA) for 24 hour, in the presence of 0.3 mM or 0.8 mM of compounds A-D or 1 mM of reduced glutathione (GSH) a natural antioxidant, as shown in the front row of FIG. 2. A similar set of cells was treated with the same concentrations of compounds A-D and of reduced glutathione, yet without 6-hydroxy-dopamine, as shown in the back row of FIG. 2. Due to the high lipophylicity of the antioxidants used, they were first dissolved in dimethyl sulfoxide (DMSO), then in water and were applied to the cells in a final concentration of 3% DMSO. [^3H]-thymidine was added to the cells (1 μCi/100,000 cells) six hours prior to the end of the 24 hour period.
The results presented in FIG. 2 are the mean of triplicate wells taken from three independent cell batches, wherein control represent untreated cells and is defined as 100% [^3H]-thymidine uptake. The effect of DMSO on the cells was tested separately as shown.

For a further data set, the system named is GSH. The data set is described as follows: Brain GSH levels after IP injection of compound J (HPLC). Type of data set: in vivo, C57BL/6J mice. The conditions noted are these: mice brain extract after IP injection.
Data set [4] has as its system Neuroblastoma SHSY5Y (NB) cells. In words: Protection from oxidative stress in vitro, neutral red survival assay. Type of data set: cell-based. As for the experimental part:
Protection from oxidative stress in vitro: Neuroblastoma SHSY5Y (NB) cells were maintained in Dulbeco's Modified Eagle's Medium (DMEM), supplemented with 8% FCS and 8% horse serum, penicillin (25 μg/ml), streptomycin (25 μg/ml), 2 mM L-glutamine and 400 μg/ml G418 (Gibco/BRL). For protection experiments cells were subcultured (in 2% serum) to poly-L-lysine-coated 96-well microtiter plates (Nunc), 100 μl of 5×10^5 cells/ml, CEA was applied to the cells in each well and 4 hours later DA, L-dopa (levodopa), 6-OHDA and MPP+ were added for 24 hours.
Survival was assayed by adding neutral red (0.34%, Sigma) to cells in DCCM-1 medium (0.1 ml/well, Bet-Haemek) and incubation for 2 hour at 37° C. The cells were then washed with cold PBS containing 10 mM MgCl2 and the dye was dissolved in 50% ethanol in 50% Somerson buffer (70 mM sodium citrate, 30 mM citric acid, 0.1 N HCl). ELISA reader (590 nm) was used to measure the remaining color intensity.

The nature of data set [5]: Crossing the blood-brain-barrier: compound level in brain extracts by HPLC after IP injection. Type of data set: in vivo, C57BL/6J mice. Conditions: mice. How it is done:
Detection of compound j (referred to in this Example also as CEA) was established using high performance liquid chromatography (HPLC). To this end, CEA was treated with a fluorescent thiolyte reagent (monobromobimane reagent) and analyzed on an HPLC column.
Crossing the blood-brain-barrier: In vivo experiments were carried out on C57BL/6J mice (15 grams) injected IP with compound J. After incubation (15 min, 60 min or 4 hours) the mice were anesthetized with ether and blood samples were drawn. Then mice underwent perfusion with 50 ml of saline, injected into the right ventricle. The levels of […] in the brain and in the plasma were detected by selective fluorescent labeling using high performance liquid chromatography (HPLC).
Increasing amounts of compound J were injected IP and 15 min later, mice were perfused with saline and compound J levels in the brain extracts were determined by HPLC chromatography (FIG. 5b), as compared to a control, pure, uninjected compound J (FIG. 5a).

Consider `CCOC(=O)[C@H](CS)NC(C)=O` [compound A, N-acetyl cysteine ethyl ester], for which, in data set [1], the “Crossing of the blood brain barrier” value is reported as “crosses the blood brain barrier” and the “Level of endogenous GSH at the striatum” value was “increases the level of endogenous GSH”.

For `CCOC(=O)C(NC(C)=O)C(C)(C)S` (stereo not shown) [compound B, N-acetyl-penicillamine ethyl ester], the “Increase of [3H]-thymidine uptake” value with PC12 cells [2] (compound at 0.03 mM) is given as “Ca. 1.5”.

Consider `CC(=O)N[C@H](C(=O)O)C(C)(C)S` [compound C, N-acetyl-β,β-dimethyl cysteine], for which, in the data set with PC12 cells [3] (compound at 0.3 mM), the “Increase of [3H]-thymidine uptake of 6-hydroxy-dopamine treated cells” value is recorded as “Ca. 1.5”.

With `CCOC(=O)CNC(=O)C(CS)NC(=O)CCC(N)C(=O)O` (stereo not shown) [compound D, Glutathione ethyl ester], the “Increase of [3H]-thymidine uptake” value in the data set with PC12 cells [2] (compound at 0.03 mM) and in the data set on PC12 cells [2] (compound at 0.1 mM) was “Ca. 2.5” in each case. The “Increase of [3H]-thymidine uptake of 6-hydroxy-dopamine treated cells” value with PC12 cells [3] (compound at 0.3 mM) and in the data set with PC12 cells [3] (compound at 0.8 mM) was “Ca. 3.5” in each case.

Consider `CC(=O)NC(CS)C(N)=O` (stereo not shown) [compound J], for which the “Increase of GSH levels over untreated animals” value in the data set with GSH is “up to 46%”. Besides, in data set [4] (0.3 mM compound, neutral red assays), the Cell survival entry is given as “up to 95%”. In data set [4] (compound at 0.1 mM, DA, L-dopa, 6-OHDA 0.1-0.25 mM, MPP+ 0.5-2 mM, 24 hours), the “Protection of cells against toxicity (>50%) of DA, L-dopa, 6-OHDA and MPP+” value is “protect the cells”. In addition, the “Compound level in the brain” value in data set [5] (IP injection 0.25-4 mg, 15 min, brain extracts) is given as “concentration-dependent increase”. Besides, the “Crossing of the BBB” value in data set [5] (IP injection, fluorescent labeling and HPLC) is reported as “crosses the BBB”.
